Measured values taken from US20140135217A1, “Use of Tetracyanodithiines as Fungicides” (BASF SE, priority 2011, published 2014).

How the values were obtained:
[1] = tested on: Phakopsora pachyrhizi; assay: Glasshouse trial: protective control of soy bean rust on soy beans; format: in vivo; conditions: soy bean seedlings sprayed with 1000 ppm, inoculated 1 day later, assessed after fourteen days; untreated plants 90% infected
Procedure: The spray solutions were prepared in several steps: The stock solution were prepared: a mixture of acetone and/or dimethylsulfoxide and the wetting agent/emulsifier Wettol, which is based on ethoxylated alkylphenoles, in a relation (volume) solvent-emulsifier of 99 to 1 was added to 25 mg of the compound to give a total of 10 ml. Water was then added to total volume of 100 ml. This stock solution was diluted with the described solvent-emulsifier-water mixture to the given concentration. Leaves of pot-grown soy bean seedlings were sprayed to run-off with an aqueous suspension, containing the concentration of active ingredient or their mixture as described below. The plants were allowed to air-dry. […] Then the plants were inoculated with spores of Phakopsora pachyrhizi. […] The extent of fungal attack on the leaves was visually assessed as % diseased leaf area.

[2] = tested on: Botryis cinerea; format: cell-based; conditions: Botrci; vs compound-free control (100%); 405 nm, 7 days after inoculation; concentration not given
[3] = tested on: Pyriculana oryzae; format: cell-based; conditions: Pyrior; vs compound-free control (100%); 405 nm, 7 days after inoculation; concentration not given
[4] = tested on: Septoria tritici; format: cell-based
[5] = tested on: Alternaria solani; format: cell-based
[6] = tested on: Pyrenophora teres; format: cell-based
[7] = tested on: Rhynchosporium secalis; format: cell-based
[8] = tested on: Rhizoctonia solani; format: cell-based
[9] = tested on: Colletotrichum truncatum; format: cell-based
[10] = tested on: Corynespora cassiicola; format: cell-based
[11] = tested on: Septoria glycines; format: cell-based
[12] = tested on: Cercospora sojina; format: cell-based
[13] = tested on: Fusarium culmorum; format: cell-based
[14] = tested on: Fusarium poae; format: cell-based
[15] = tested on: Fusarium oxysporum; format: cell-based
[16] = tested on: Cochliobolus miyabeanus; assay: Microtiter test, brown spot on rice (Cochmi); format: cell-based; conditions: vs compound-free control (100%), 405 nm, 7 days after inoculation, concentration not given
[17] = tested on: Colletotrichum lagenarium; format: cell-based
[18] = tested on: Phytophthora infestans; format: cell-based; conditions: Phytin; pea juice-based or DDC medium; vs compound-free control (100%); 405 nm, 7 days after inoculation; concentration not given

**Q.** For `N#CC1=C(C#N)SC(C#N)=C(C#N)S1` [compound I.A, 2,3,5,6-tetracyano-[1,4]dithiine], which “infection (% diseased leaf area)” value [1] is on record?
**A.** 4%

**Q.** What about the “relative growth in % of the pathogen” value [2] of the same compound?
**A.** 1%

**Q.** And the “relative growth in % of the pathogen” value [3]?
**A.** 0%

**Q.** And the “relative growth in % of the pathogen” value [4]?
**A.** 0%

**Q.** And the “relative growth in % of the pathogen” value [5]?
**A.** 0%

**Q.** What about the “relative growth in % of the pathogen” value [6] of the same compound?
**A.** 0%

**Q.** And the “relative growth in % of the pathogen” value [7]?
**A.** 0%

**Q.** What about the “relative growth in % of the pathogen” value [8] of the same compound?
**A.** 0%

**Q.** And the “relative growth in % of the pathogen” value [9]?
**A.** 0%

**Q.** What about the “relative growth in % of the pathogen” value [10] of the same compound?
**A.** 1%

**Q.** What about the “relative growth in % of the pathogen” value [11] of the same compound?
**A.** 0%

**Q.** What about the “relative growth in % of the pathogen” value [12] of the same compound?
**A.** 0%

**Q.** And the “relative growth in % of the pathogen” value [13]?
**A.** 0%

**Q.** What about the “relative growth in % of the pathogen” value [14] of the same compound?
**A.** 0%

**Q.** And the “relative growth in % of the pathogen” value [15]?
**A.** 0%

**Q.** And the “relative growth in % of the pathogen” value [16]?
**A.** 0%

**Q.** What about the “relative growth in % of the pathogen” value [17] of the same compound?
**A.** 0%

**Q.** And the “relative growth in % of the pathogen” value [18]?
**A.** 0%
